Consider four compounds from ChEMBL document CHEMBL4339213, “Microwave-assisted synthesis and in vitro stability of N-benzylamide non-steroidal anti-inflammatory drug conjugates for CNS delivery” (Bioorg Med Chem Lett, 2019).

Data set [1] can be described thus: Drug metabolism in human plasma assessed as release of the NSAID by LC-MS analysis. Format: ADME, cell-free.
The nature of data set [2]: Half life in pH 7.4 PBS at 125 uM incubated at 37 degC by HPLC analysis. The format is physicochemical.
A short description of data set [3]: Half life in human plasma at 125 uM by HPLC analysis. The format is ADME, cell-free.
A short description of data set [4]: Half life in human plasma at 100 uM by HPLC analysis. Format: ADME, cell-free.
Data set [5] in a line: Half life in human plasma. The format is ADME, cell-free.

SMILES strings stand for the structures.

Take `CC(C)Cc1ccc(C(C)C(=O)OCCC(=O)NCc2ccccc2)cc1` (stereo not given): the Drug metabolism result in data set [1] is recorded as “Metabolite_Detected”. Also, in data set [2], the half-life at 125 µM is > 2880 min.

Turning to `COc1ccc2cc([C@H](C)C(=O)OCCC(=O)NCc3ccccc3)ccc2c1`, the Drug metabolism result in data set [1] was “Metabolite_Detected”. In addition, the half-life at 125 µM in data set [3] is 4.7 min; in data set [2], > 2880 min.

The compound `CC(C(=O)OCCC(=O)NCc1ccccc1)c1ccc(-c2ccccc2)c(F)c1` (stereo not given) displayed a half-life at 100 µM in data set [4] of 110 min. Also, the Drug metabolism entry in data set [1] was “Metabolite_Detected”. Also, in data set [2], the half-life at 125 µM was > 2880 min.

As for `COc1ccc2c(c1)c(CC(=O)OCCC(=O)NCc1ccccc1)c(C)n2C(=O)c1ccc(Cl)cc1`, the half-life in data set [5] is > 216 min. For the same compound, the Drug metabolism entry in data set [1] is on record as “Metabolite_Detected”.
